Experimental data: patent US7053052B2, “Therapies involving mutated heat shock transcription factor” (priority 1997, dated 2006)
“Also recorded” adds a separate entry of the source.

Experiments:
[1] = test system: endogenous hsp genes in HeLa-CAT cells; assay: Expression of endogenous hsps (anti-hsp western blot, 3H-leucine labeling/fluorography); assay type: cell-based, human
Procedure: Cells were scraped of dishes and lysed in buffer C. Aliquots containing equal amounts of cell protein as well as prestained molecular weight markers were applied to 8.5% SDS-PAGE gels. Following electrophoresis, proteins were transferred to Immobilon-P Transfer Membranes (Millipore Corp., Bedford, Mass.), and membranes were blocked by incubation with TBS (25 mM Tris-HCl, pH 8.0, 0.136 M NaCl, 2.7 mM KCl) with 2% nonfat dry milk. Appropriate sections of membranes were incubated with anti-HSF1 polyclonal antibody (Baler, R. et al., Mol. Cell. Biol., 13:2486–2496 (1993)), anti-Hsp antibodies (all from StressGen Biotechnologies Corp., Victoria, B C) or anti-actin antibody (Amersham, Arlington Heights, Ill.). Following three washes with TBS, membranes were reblocked and incubated with second antibody (horseradish peroxidase-conjugated anti-mouse or anti-rabbit IgG (Amersham). After several washes in TBS, membranes were developed using the ECL Western Blot Detection Kit (Amersham).
To avoid the apparent problem with low transfection efficiency altogether, the transfection approach was substituted by an infection approach. The mutHSF cDNA (HSF1(+)) was inserted behind a cytomegalovirus promoter flanked by adenoviral sequences in plasmid vector AC CMV pLpA SR (+). Human 293 cells expressing the adenovirus E1A region genes were co-transfected with plasmid vector lacking an inserted foreign gene or plasmid vector containing mutHSF and plasmid JM17 containing the bulk of adenovirus sequences. By recombination of sequences on the two types of plasmids, adenoviral genomes were created that lacked the EIA region (replication-defective) but contained a cytomegalovirus promoter (control virus) or a cytomegalovirus promoter linked to the mutHSF gene and that were packaged into defective virus particles (mutHSF virus)(See Graham and Prevec, 1991, for a description of the methodology used to create the adenovirus vehicles). Viral plaques were isolated and expanded, and the viral genomes were analyzed by restriction enzyme digestion. Infections with viruses were performed at a multiplicity of infection (MOI) of about 5. Three groups of 50% confluent cultures of HeLa-CAT cells were set up. The first group was infected with mutHSF virus (Ade-HSF1(+)), the second group with control virus (Ade), and the third group received no virus. The three groups of cultures were then incubated for 15, 24 and 36 hours, respectively, and were subsequently harvested. Extracts were prepared as before.
Even synthesis of the typically less inducible hsps such as hsp73 (also known as hsc70) and hsp60 was enhanced. […] The hsp90 antibody used may have detected both the inducible and constitutive forms of hsp90, masking a more dramatic induction of the inducible form. […]

[2] = test system: human hsp70B promoter-driven chloramphenicol acetyltransferase (CAT) gene; assay: hsp70B-CAT reporter gene assay in HeLa-CAT cells; assay type: cell-based
Procedure: CAT assays were performed using the chromatographic assay of Gorman, C. M. et al., Mol. Cell. Biol., 2:1044–1051 (1982)). DNA replication was assessed by a standard ^3H-thymidine incorporation assay. In most experiments, including all western blot assays, standardization was based on protein content. All protein determinations were made using the Bradford method. In a few experiments involving sorted cells, standardization was based on cell numbers. All experiments were repeated at least twice, and, in most cases, each data point was derived from assays of 3–5 parallel samples.
To find out whether HSF1(−) could function as a negatively acting factor, HeLa-CAT cells containing integrated copies of an hsp70B-chloramphenicol acetyltransferase (CAT) gene were co-transfected with an HSF1(−) and an EFGP-expressing construct. […] To determine whether elevated Hsp levels induced by heat preconditioning are required for development of tolerance measured as an increased rate of recovery from heat-induced translational arrest, cultures co-transfected with EGFP- and HSF1(−)-expressing constructs or transfected with EGFP-expressing construct only (control cultures) were mildly heat-preconditioned (41° C./1 hour) and, 3 hours later, subjected to a 44° C./30 minutes (severe) heat shock. […] Rates of protein synthesis were assessed by pulse-labeling cells with ^3H-leucine. […]

[3] = test system: HepG2 cells; assay: Mortality from exposure to cyclophosphamide (LDH release, mortality); conditions: cyclophosphamide 20 mM
[4] = test system: rodent cell lines; assay: hsp overexpression in rodent cell lines; assay type: cell-based; conditions: several rodent cell lines
[5] = 15, 24, 36 hours after infection

Substance | Hsp90 levels (western blot) [1, 5] | expression of hsp72 and hsp27 (western blot) [1, 5] | synthesis of hsp73 and hsp60 (western blot) [1, 5] | activation of hsp70B-CAT genes in the absence of stress ([2]; no heat shock, listed as mutHSF) | reduction of mortality by LDH leakage assay [3] [%] | reduction of cyclophosphamide-caused mortality ([3]; 24 hour) [%] | pattern of hsp overexpression [4] | heat-induced Hsp accumulation (anti-Hsp72 western blot) ([1]; 41° C./1 hour heat shock) | heat-induced hsp70B-CAT reporter expression ([2]; 41° C./1 hour heat shock, FACS-isolated cells)
human HSF1d202–316 [HSF1(+)] | clearly increased | drastically increased | enhanced | equally as well as or better than endogenous HSF1 activated by a moderately severe heat shock; also recorded: strongly activated | 43 | 55 | hsp90 and, to a lesser extent, hsp25 were clearly overexpressed; the rate of hsp70 synthesis was only marginally enhanced |  | 
human HSF1d453–523 [HSF1(−)] |  |  |  |  |  |  |  | greatly reduced | severely inhibited
